Earlier results on two molecules are cited in article PMC5488687 (The Biochemical journal, 2016).

Each structure is given as a SMILES string. Like-named read-outs stand apart in the source and are kept apart here.

The test system of series [1] is cells with amplified centrosomes.
For series [2], the system named is neuroblastoma N1E-115 cells.
Series [3] deals with normal human dermal fibroblasts (NHDF). Conditions: read-out: IC50, cell viability of NHDF cells.
Series [4] has the same test system.
Series [5] concerns neuroblastoma N1E-115 cells. The following applies: read-out: IC50, cell viability of N1E-115 cells.

By IC50 is commonly meant the concentration that gives 50% inhibition. Consider `CCCc1cc(C(=O)N[C@H](Cc2ccc(-c3cccc(OC(F)(F)F)c3)nc2)C(=O)N[C@@H]2CCNC2)sc1C` [AZ82], for which the “multipolar spindle formation and mitotic catastrophe” value in series [1] is “triggered multipolar spindle formation and mitotic catastrophe”. Also, in the series with KIFC1 (read-out: IC50, MT-stimulated KIFC1 ATPase activity), the IC50 is 0.3 µM. In the series on KIFC1/MT complex, the “binding to KIFC1/MT complex versus KIFC1 or MT alone” value is reported as “bound specifically to KIFC1/MT complex but did not interact directly with KIFC1 or MT”.
Turning to `O=C(O)c1cc(I)ccc1NC(=O)[C@H](Cc1ccccc1)NCc1ccccc1` [CW069], in series [2], the “multipolar spindle formation in N1E-115 cells” value is reported as “increased multipolar spindle formation”. Moreover, the IC50 in series [3] is 187 µM; in series [5], 86 µM; with KIFC1 (read-out: IC50, KIFC1 ATPase activity) it was 75 µM. The “effect on bipolar spindle formation in NHDF” value in series [4] was “no effects”.
